# Measured values reported in patent US20140357713A1, “ANTIMICROBIAL COMPOUNDS AND METHODS OF USE” (NexMed Holdings, Inc., priority 2012, published 2014).
# Where a name gives a salt, the structure may show the parent alone. Read-outs that look alike come from different tables or passages of the source.
# Tests used:
# pH (Table 1) = type: physicochemical
# [1] = system: Escherichia coli (ATCC 25922); assay: Minimum inhibitory concentration (MIC) assay, Example 33; type: cell-based
# Method: (§1) Thirty compounds were tested for antimicrobial activity using standard procedures and standard strains for both the minimum inhibitory concentration (MIC) assay and a time kill study. Both the MIC assay and the time kill study were performed according to Clinical and Laboratory Standards Institute (CLSI) guidelines. Three bacteria strains, Escherichia coli (ATCC 25922), Pseudomonas aeruginosa (ATCC 27853), Staphulococcus aureus (ATCC 29213), and two fungus strains, Candida albicans (ATCC 90029) and Aspergillus niger (CMCC 98003), were used in the experiments.
# (§2) Preparation of cultures. Before the experiment, two days for the bacteria strains and five days for fungus strains, an aliquot was removed from the cultures frozen at −80° C. Medium was added to the surface of an appropriate agar plate and streaked with the aliquot. The plate was incubated for 20 to 24 hrs at 35±2° C. for bacteria or for 5 days at 26-30° C. in incubator for fungus. From the resulting growth on each plate, one isolated colony of similar morphology was selected and re-streaked onto a fresh agar plate using a sterile disposable loop. The plate was incubated 20 to 24 hrs at 35±2° C. or for 5 days at 26-30° C. in an incubator.
# (§3) Preparation of Assay Plates with Medium and Drugs. On the day of the assay, CAMHB medium or RPMI 1640 medium was removed from 4′C storage and allowed to reach room temperature. Ninety microliters (μL) of room temperature CAMHB or RPMI 1640 (supplemented with the appropriate concentration of DMSO, if required) were added to rows B-G of each 96-well microtiter plate. Using a pipette, duplicate 180 μL aliquots of each drug stock solution were added to column 1 (e.g. A1 and B1 or C1 and D1 or E1 and F1 or G1 and H1). Using a multichannel pipette or the Provision 2000 liquid handler, serial 2-fold dilutions (90 μL) were performed in each row across the plate to row G. Eighty μL of compounds dilutions were transferred to a 96-deep well plate. Medium, 1,520 μL of CAMHB or RPMI 1640, was added to each well. The contents of the wells were mixed thoroughly. A 50 μL aliquot of each of the resulting mixtures was transferred to a 96-well assay plate.
# (§4) For bacteria, a sterile inoculating loop was used to transfer growth from an agar plate culture into about 5 mL of test medium. Using a turbidity meter, this inoculum was adjusted so that its density (600 nm) was equivalent to a 0.5 McFarland barium sulfate standard (0.08-0.13). The resulting suspension was diluted 1:100 into medium to obtain two times test inoculums.
# (§5) For Aspergillus niger, sporulating colonies were covered with RPMI 1640, and a suspension was prepared by gently probing the colonies with the tip of a transfer pipette. The suspension was transferred to a sterile tube and mixed with a vortex mixer for 15 seconds. The densities at 530 nm were adjusted to 0.09-0.13 for each sample. The resulting suspension was diluted 1:50 with the medium to obtain two times test inoculums. Fifty μL/well of this inoculum suspension was added to wells of drug-containing plates (1:2 dilution). Plates were incubated at 35° C. for the appropriate times. The MIC was read and recorded according to CLSI guidelines.
# (§6) The MIC values for thirty compounds against Escherichia coli, Pseudomonas aeruginosa, Staphulococcus aureus, Candida albicans, and Aspergillus niger were recorded and are presented in Table 3 and Table 4.
# [2] = system: Pseudomonas aeruginosa (ATCC 27853); assay: as above; type: cell-based; settings: for MIC: Table 19 summary
# Method: as §1, §2, §3, §4, §5, §6
# [3] = system: Staphulococcus aureus (ATCC 29213); assay: as above; type: cell-based, Staphylococcus aureus
# Method: as §1, §2, §3, §4, §5, §6
# [4] = system: Candida albicans (ATCC 90029); assay: as above; type: cell-based
# Method: as §1, §2, §3
# For Candida albicans, a sterile inoculating loop was used to transfer growth from an agar plate culture into a tube with RPMI1640 medium. This inoculum was adjusted so that its density at 530 nm was in the ranges from 0.08 to 0.13. The resulting suspension was diluted 1:50 and further diluted 1:20 with the medium to obtain two times test inoculums.
# as §5, §6
# [5] = system: Aspergillus niger (CMCC 98003); assay: as above; type: cell-based
# Method: as §1, §2, §3, §5, §6
# [6] = system: Candida albicans (ATCC 90029); assay: Time kill study, Example 33 (0 to 5 min); type: cell-based; settings: 1×MIC
# Method: as §1
# (§7) The viable counts in Log10 CFU/mL at each time point were recorded.
# (§8) Time kill studies. Strain suspensions were prepared as described above for the MIC test, and strain suspensions and compound solutions were mixed in the same volume. Samples were removed at specified times including 0 min, 30 sec, 1 min and 5 mins, were diluted in the test medium and streaked on agar. Colonies were counted after 24 to 48 hrs of incubation. […]
# [7] = system: Escherichia coli (ATCC 25922); assay: Time kill study, Example 33 (0 to 5 min); type: cell-based; settings: 1×MIC, sulfate
# Method: as §1, §7, §8
# [8] = system: Pseudomonas aeruginosa (ATCC 27853); assay: Time kill study, Example 33 (0 to 5 min); type: cell-based; settings: 1×MIC
# Method: as §1, §7, §8
# [9] = system: Staphylococcus aureus (ATCC 29213); assay: Time kill study, Example 33 (0 to 5 min); type: cell-based; settings: 1×MIC
# Method: as §1, §7, §8
structure (smiles),measurement,setting,value
"CCCCCCCCCCCCOC(=O)C(C)N(C)C (centres unmarked) [Nex-03, Dodecyl 2-(dimethylamino)propanoate sulfate]",pH,pH (Table 1); sulfate,1.60
same,MIC,"[1]; Table 19 summary of Example 33 and Example 35, sulfate",1560 µg/mL
same,MIC E. coli,"[1]; n = 1, sulfate",1560 µg/mL
same,MIC E. coli,"[1]; n = 2, sulfate",1560 µg/mL
same,MIC,[2]; sulfate,3130 µg/mL
same,MIC P. aeruginosa,"[2]; n = 1, sulfate",3130 µg/mL
same,MIC P. aeruginosa,"[2]; n = 2, sulfate",3130 µg/mL
same,MIC,"[3]; Table 19 summary, sulfate",1560 µg/mL
same,MIC S. aureus,"[3]; n = 1, sulfate",1560 µg/mL
same,MIC S. aureus,"[3]; n = 2, sulfate",1560 µg/mL
same,MIC Candida albicans,"[4]; n = 1, sulfate",12500 µg/mL
same,MIC Candida albicans,"[4]; n = 2, sulfate",6250 µg/mL
same,MIC,"[5]; Aspergillus niger, CMCC98003, n = 1, read-out: MIC Aspergillus niger",> 12500 µg/mL
same,MIC,"[5]; Aspergillus niger, CMCC98003, n = 2, read-out: MIC Aspergillus niger",> 12500 µg/mL
same,MIC,"[5]; Table 19 summary, sulfate",>12500 µg/mL
same,"Viable counts, Candida albicans time kill study","[6]; 0.5 min, sulfate",5.53 Log10 CFU/mL
same,"Viable counts, Candida albicans time kill study","[6]; 1 min, sulfate",5.54 Log10 CFU/mL
same,"Viable counts, Candida albicans time kill study","[6]; 5 min, sulfate",5.52 Log10 CFU/mL
same,"Viable counts, Candida albicans time kill study","[6]; time 0, sulfate",5.6 Log10 CFU/mL
same,"Viable counts, Escherichia coli time kill study",[7]; 0.5 min,4.90 Log10 CFU/mL
same,"Viable counts, Escherichia coli time kill study",[7]; 1 min,4.18 Log10 CFU/mL
same,"Viable counts, Escherichia coli time kill study",[7]; 5 min,3.82 Log10 CFU/mL
same,"Viable counts, Escherichia coli time kill study",[7]; time 0,4.92 Log10 CFU/mL
same,"Viable counts, Pseudomonas aeruginosa time kill study","[8]; 0.5 min, sulfate",<4.0 Log10 CFU/mL
same,"Viable counts, Pseudomonas aeruginosa time kill study","[8]; 1 min, sulfate",<3.70 Log10 CFU/mL
same,"Viable counts, Pseudomonas aeruginosa time kill study",[8]; 5 min,<3.52 Log10 CFU/mL
same,"Viable counts, Pseudomonas aeruginosa time kill study","[8]; time 0, sulfate",5.6 Log10 CFU/mL
same,"Viable counts, Staphylococcus aureus time kill study","[9]; 0.5 min, sulfate",6.1 Log10 CFU/mL
same,"Viable counts, Staphylococcus aureus time kill study","[9]; 1 min, sulfate",6.12 Log10 CFU/mL
same,"Viable counts, Staphylococcus aureus time kill study","[9]; 5 min, sulfate",6.11 Log10 CFU/mL
same,"Viable counts, Staphylococcus aureus time kill study","[9]; time 0, sulfate",6.11 Log10 CFU/mL
"CCCCCCCCCCCCOC(=O)C(C)N(C)C (centres unmarked) [Nex-15, Dodecyl 2-(dimethylamino)propanoate phosphate]",pH,pH (Table 1); phosphate,2.01
same,MIC (mg/ml),"[1]; Table 19 summary of Example 33 and Example 35, phosphate",≧12.5 mg/ml
same,MIC E. coli,"[1]; n = 1, phosphate",>12500 µg/mL
same,MIC E. coli,"[1]; n = 2, phosphate",>12500 µg/mL
same,MIC,[2]; phosphate,>12500 µg/mL
same,MIC P. aeruginosa,"[2]; n = 1, phosphate",>12500 µg/mL
same,MIC P. aeruginosa,"[2]; n = 2, phosphate",>12500 µg/mL
same,MIC S. aureus,"[3]; n = 1, phosphate",390 µg/mL
same,MIC S. aureus,"[3]; n = 2, phosphate",200 µg/mL
same,MIC,"[4]; Table 19 summary, phosphate",50 µg/mL
same,MIC Candida albicans,"[4]; n = 1, phosphate",50 µg/mL
same,MIC Candida albicans,"[4]; n = 2, phosphate",50 µg/mL
same,MIC,"[5]; Table 19 summary, phosphate",12500 µg/mL
same,MIC Aspergillus niger,"[5]; n = 1, phosphate",12500 µg/mL
same,"Viable counts, Candida albicans time kill study","[6]; 0.5 min, phosphate",5.23 Log10 CFU/mL
same,"Viable counts, Candida albicans time kill study","[6]; 1 min, phosphate",5.25 Log10 CFU/mL
same,"Viable counts, Candida albicans time kill study","[6]; 5 min, phosphate",5.28 Log10 CFU/mL
same,"Viable counts, Candida albicans time kill study","[6]; time 0, phosphate",5.12 Log10 CFU/mL
same,"Viable counts, Staphylococcus aureus time kill study","[9]; 0.5 min, phosphate",6.16 Log10 CFU/mL
same,"Viable counts, Staphylococcus aureus time kill study","[9]; 1 min, phosphate",6.14 Log10 CFU/mL
same,"Viable counts, Staphylococcus aureus time kill study","[9]; 5 min, phosphate",6.14 Log10 CFU/mL
same,"Viable counts, Staphylococcus aureus time kill study","[9]; time 0, phosphate",6.23 Log10 CFU/mL
